Results on 16 molecules are retold here after US11254668B2, “Pyrazolo[1,5-A]pyrazin-4-yl and related derivatives” (Pfizer Inc., priority 2017, dated 2022).

Each structure is given as a SMILES string. Like-named read-outs stand apart in the source and are kept apart here.

Format in all cases: biochemical
One experiment deals with TYK2 (Homo sapiens (Human), UniProt P29597). As to the kind of experiment: JAK Caliper Enzyme Assay at 1 mM ATP, TYK2. The gist of the method: (§1)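 Peptide phosphorylation by recombinant human kinase domain, 1 mM ATP, room temperature, EDTA-terminated, detected by microfluidic mobility shift; % effect normalised to DMSO baseline.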
A further experiment has as its target JAK3 (Homo sapiens (Human), UniProt P52333). As to the kind of experiment: JAK Caliper Enzyme Assay at 1 mM ATP, JAK3. The gist of the method: (§2)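 Recombinant human kinase domains phosphorylated a fluorescent synthetic peptide at room temperature, with enzyme level and time tuned to 20% to 30% conversion; EDTA stop buffer ended reactions. Mobility-shift separation gave percent product from peak heights, normalised to DMSO and positive controls, and IC50s came from concentration–effect curves.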

The target of the next experiment is JAK1 (Homo sapiens (Human), UniProt P23458). As to the kind of experiment: JAK Caliper Enzyme Assay at 1 mM ATP, JAK1. The gist of the method:
as §2

The next experiment concerns the target JAK2 (Homo sapiens (Human), UniProt O60674). Description: JAK Caliper Enzyme Assay at 1 mM ATP, JAK2. The gist of the method: as §1

Chain of TYK2 (P29597 897-1176): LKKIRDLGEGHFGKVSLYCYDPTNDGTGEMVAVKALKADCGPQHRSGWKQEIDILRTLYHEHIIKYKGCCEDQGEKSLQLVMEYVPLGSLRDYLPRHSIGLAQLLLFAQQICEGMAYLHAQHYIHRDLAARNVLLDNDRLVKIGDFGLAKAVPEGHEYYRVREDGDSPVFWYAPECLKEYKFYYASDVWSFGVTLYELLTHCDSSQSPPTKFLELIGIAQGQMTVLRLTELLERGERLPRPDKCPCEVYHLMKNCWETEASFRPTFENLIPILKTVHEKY
Chain of JAK3 (P52333 822-1111): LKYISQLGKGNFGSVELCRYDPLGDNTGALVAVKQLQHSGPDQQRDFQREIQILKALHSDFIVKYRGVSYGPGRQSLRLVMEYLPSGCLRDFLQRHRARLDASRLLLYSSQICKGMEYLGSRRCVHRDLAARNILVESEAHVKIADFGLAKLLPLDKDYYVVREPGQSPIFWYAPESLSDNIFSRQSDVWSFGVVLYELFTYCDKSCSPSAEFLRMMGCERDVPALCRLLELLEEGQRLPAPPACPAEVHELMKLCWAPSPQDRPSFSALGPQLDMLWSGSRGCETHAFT
Chain of JAK2 (O60674 849-1124): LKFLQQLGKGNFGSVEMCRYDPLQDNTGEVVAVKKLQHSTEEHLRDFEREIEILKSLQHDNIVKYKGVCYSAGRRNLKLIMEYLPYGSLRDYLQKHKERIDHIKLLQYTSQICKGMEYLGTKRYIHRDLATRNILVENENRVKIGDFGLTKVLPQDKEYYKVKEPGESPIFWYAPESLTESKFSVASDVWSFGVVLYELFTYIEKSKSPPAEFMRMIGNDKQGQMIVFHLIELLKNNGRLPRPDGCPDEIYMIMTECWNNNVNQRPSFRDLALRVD
Chain of JAK1 (P23458 875-1153): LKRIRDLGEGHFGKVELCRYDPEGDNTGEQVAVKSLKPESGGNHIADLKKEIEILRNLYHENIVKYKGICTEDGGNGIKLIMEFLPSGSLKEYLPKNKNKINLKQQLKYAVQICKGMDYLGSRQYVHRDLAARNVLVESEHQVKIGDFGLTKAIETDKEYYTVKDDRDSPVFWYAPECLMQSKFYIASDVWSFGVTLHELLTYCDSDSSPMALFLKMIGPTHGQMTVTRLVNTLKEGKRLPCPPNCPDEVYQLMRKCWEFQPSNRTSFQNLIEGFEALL

By IC50 is commonly meant the concentration that inhibits the measured activity by half. Consider `N#CC[C@]1(n2ncc(-c3cc(-c4ccc(N)nc4)cc4ncccc34)n2)C[C@@H](C#N)C1` [Example 366, cis-3-{4-[7-(6-aminopyridin-3-yl)quinolin-5-yl]-2H-1,2,3-triazol-2-yl}-3-(cyanomethyl)cyclobutanecarbonitrile], for which the IC50 on TYK2 worked out at 26 nM; at JAK3, 8160 nM; on JAK1 it was 520 nM; at JAK2, 167 nM.
On to `N#CC[C@]1(n2ncc(-c3cc(-c4ccnc(N)c4)cc4ncccc34)n2)C[C@H](C#N)C1` [Example 367, trans-3-{4-[7-(2-aminopyridin-4-yl)quinolin-5-yl]-2H-1,2,3-triazol-2-yl}-3-(cyanomethyl)cyclobutanecarbonitrile], for which the IC50 at TYK2 was 93 nM; on JAK3 it was over 10000 nM; at JAK1, 2800 nM; at JAK2, 1290 nM.
On to `CS(=O)(=O)c1ccc(-c2cc(-c3cnn([C@]4(CC#N)C[C@H](C#N)C4)n3)c3cccnc3c2)nc1` [Example 368, cis-3-(cyanomethyl)-3-(4-{7-[5-(methylsulfonyl)pyridin-2-yl]quinolin-5-yl}-2H-1,2,3-triazol-2-yl)cyclobutanecarbonitrile], for which the IC50 is 15 nM on TYK2, 7250 nM at JAK3, 525 nM on JAK1 and 42 nM at JAK2.
Turning to `CS(=O)(=O)c1ccc(-c2cc(-c3cnn([C@]4(CC#N)C[C@@H](C#N)C4)n3)c3cccnc3c2)nc1` [Example 369, trans-3-(cyanomethyl)-3-(4-{7-[5-(methylsulfonyl)pyridin-2-yl]quinolin-5-yl}-2H-1,2,3-triazol-2-yl)cyclobutanecarbonitrile], the IC50 at TYK2 was 55 nM; at JAK3, over 10000 nM; on JAK1 it was 3510 nM; at JAK2, 281 nM.
Regarding `N#CC[C@]1(n2ncc(-c3cc(-c4cccc(C(=O)O)n4)cc4ncccc34)n2)C[C@H](C#N)C1` [Example 370, 6-(5-{2-[cis-3-cyano-1-(cyanomethyl)cyclobutyl]-2H-1,2,3-triazol-4-yl}quinolin-7-yl)pyridine-2-carboxylic acid], the IC50 on TYK2 is 30 nM; on JAK3, over 10000 nM; at JAK1, 2290 nM; on JAK2, 345 nM.
In the case of `N#CC[C@]1(n2ncc(-c3cc(-c4cccc(C(=O)O)n4)cc4ncccc34)n2)C[C@@H](C#N)C1` [Example 371, 6-(5-{2-[trans-3-cyano-1-(cyanomethyl)cyclobutyl]-2H-1,2,3-triazol-4-yl}quinolin-7-yl)pyridine-2-carboxylic acid], the IC50 on TYK2 was 110 nM; on JAK3 it was over 10000 nM; on JAK1, 9280 nM; at JAK2, 1610 nM.
On to `CS(=O)(=O)Nc1cccc(-c2cc(-c3cnn(C4(CC#N)CC(C#N)C4)n3)c3cccnc3c2)n1` (stereo not drawn) [Example 372, N-[6-(5-{2-[cis-3-cyano-1-(cyanomethyl)cyclobutyl]-2H-1,2,3-triazol-4-yl}quinolin-7-yl)pyridin-2-yl]methanesulfonamide], for which the IC50 is 21 nM on TYK2 (JAK Caliper enzyme assay), 5970 nM on JAK3 (JAK Caliper enzyme assay), 600 nM at JAK1 (JAK Caliper enzyme assay) and 80 nM at JAK2 (JAK Caliper enzyme assay).
As to `CS(=O)(=O)Nc1cccc(-c2cc(-c3cnn(C4(CC#N)CC(C#N)C4)n3)c3cccnc3c2)n1` (stereo not drawn) [Example 373, N-[6-(5-{2-[trans-3-cyano-1-(cyanomethyl)cyclobutyl]-2H-1,2,3-triazol-4-yl}quinolin-7-yl)pyridin-2-yl]methanesulfonamide], the IC50 on TYK2 (JAK Caliper enzyme assay) is 69 nM; on JAK3 (JAK Caliper enzyme assay) it was over 10000 nM; at JAK1 (JAK Caliper enzyme assay), 4070 nM; on JAK2 (JAK Caliper enzyme assay), 411 nM.
As to `CS(=O)(=O)Nc1ccc(-c2cc(-c3cnn(C4(CC#N)CC(C#N)C4)n3)c3cccnc3c2)nc1` (stereo not drawn) [Example 374, N-[6-(5-{2-[cis-3-cyano-1-(cyanomethyl)cyclobutyl]-2H-1,2,3-triazol-4-yl}quinolin-7-yl)pyridin-3-yl]methanesulfonamide], the IC50 at TYK2 (JAK Caliper enzyme assay) amounted to 9 nM; at JAK3 (JAK Caliper enzyme assay), 2890 nM; on JAK1 (JAK Caliper enzyme assay), 53 nM; on JAK2 (JAK Caliper enzyme assay), 25 nM.
With `CS(=O)(=O)Nc1ccc(-c2cc(-c3cnn(C4(CC#N)CC(C#N)C4)n3)c3cccnc3c2)nc1` (stereo not drawn) [Example 375, N-[6-(5-{2-[trans-3-cyano-1-(cyanomethyl)cyclobutyl]-2H-1,2,3-triazol-4-yl}quinolin-7-yl)pyridin-3-yl]methanesulfonamide], the half-inhibitory concentration (IC50) was 30 nM at TYK2 (JAK Caliper enzyme assay), over 10000 nM on JAK3 (JAK Caliper enzyme assay), 452 nM on JAK1 (JAK Caliper enzyme assay) and 148 nM on JAK2 (JAK Caliper enzyme assay).
On the same counts, the results for `CC(=O)Nc1cccc(-c2cc(-c3cnn([C@]4(CC#N)C[C@@H](C#N)C4)n3)c3cccnc3c2)n1` [Example 376, N-[6-(5-{2-[trans-3-cyano-1-(cyanomethyl)cyclobutyl]-2H-1,2,3-triazol-4-yl}quinolin-7-yl)pyridin-2-yl]acetamide] are 36 nM, 9480 nM, 593 nM and 155 nM.
On to `CC(=O)Nc1cccc(-c2cc(-c3cnn(C4(CC#N)CC(C#N)C4)n3)c3cccnc3c2)n1` (stereo not drawn) [Example 377, N-[6-(5-{2-[cis-3-cyano-1-(cyanomethyl)cyclobutyl]-2H-1,2,3-triazol-4-yl}quinolin-7-yl)pyridin-2-yl]acetamide], for which the IC50 on TYK2 (JAK Caliper enzyme assay) is 14 nM; at JAK3 (JAK Caliper enzyme assay) it was 1350 nM; on JAK1 (JAK Caliper enzyme assay), 73 nM; at JAK2 (JAK Caliper enzyme assay) it was 33 nM.
On the same counts, the results for `Cc1nc(-c2cc(-c3cnn([C@]4(CC#N)C[C@H](C#N)C4)n3)c3cccnc3c2)ccc1CCO` [Example 378, cis-3-(cyanomethyl)-3-(4-{7-[5-(2-hydroxyethyl)-6-methylpyridin-2-yl]quinolin-5-yl}-2H-1,2,3-triazol-2-yl)cyclobutanecarbonitrile] are 35 nM, 9500 nM, 575 nM and 93 nM.
With `Cc1nc(-c2cc(-c3cnn([C@]4(CC#N)C[C@@H](C#N)C4)n3)c3cccnc3c2)ccc1CCO` [Example 379, trans-3-(cyanomethyl)-3-(4-{7-[5-(2-hydroxyethyl)-6-methylpyridin-2-yl]quinolin-5-yl}-2H-1,2,3-triazol-2-yl)cyclobutanecarbonitrile], the IC50 at TYK2 (JAK Caliper enzyme assay) is 123 nM; at JAK3 (JAK Caliper enzyme assay), over 10000 nM; at JAK1 (JAK Caliper enzyme assay), 4360 nM; at JAK2 (JAK Caliper enzyme assay), 540 nM.
For `N#CC[C@]1(n2ncc(-c3cc(-c4cc5c(cn4)CCN5)cc4ncccc34)n2)C[C@@H](C#N)C1` [Example 380, cis-3-(cyanomethyl)-3-{4-[7-(2,3-dihydro-1H-pyrrolo[3,2-c]pyridin-6-yl)quinolin-5-yl]-2H-1,2,3-triazol-2-yl}cyclobutanecarbonitrile], the IC50 on TYK2 (JAK Caliper enzyme assay) is 194 nM; on JAK3 (JAK Caliper enzyme assay) it was over 10000 nM; on JAK1 (JAK Caliper enzyme assay), 9390 nM; on JAK2 (JAK Caliper enzyme assay), 811 nM.
On to `Cc1nc(-c2cc(-c3cnn([C@]4(CC#N)C[C@H](C#N)C4)n3)c3cccnc3c2)ccc1O` [Example 381, cis-3-(cyanomethyl)-3-{4-[7-(5-hydroxy-6-methylpyridin-2-yl)quinolin-5-yl]-2H-1,2,3-triazol-2-yl}cyclobutanecarbonitrile], for which the IC50 was 30 nM on TYK2 (JAK Caliper enzyme assay), over 10000 nM on JAK3 (JAK Caliper enzyme assay), 432 nM on JAK1 (JAK Caliper enzyme assay) and 138 nM on JAK2 (JAK Caliper enzyme assay).
